Laboratory results as given in patent US20110060029A1, “METHOD OF TREATING CANCER BY MODULATING EPAC” (priority 2009, published 2011).
“Also recorded” adds a separate entry of the source.

Key:
[1] = system: HEMA-LP human melanocytes; assay: Migration assay (Boyden chambers) in HEMA-LP melanocytes; assay type: cell-based; settings: HEMA-LP melanocyte; 50 μM agonist; FIG. 1A
Description: (§1) Cell Culture—SK-Mel-2 and SK-Mel-24 (ATCC) cell lines were cultured in Eagle's Minimum Essential Medium supplemented with 10% fetal bovine serum at 37° C./5% CO2. HEMA-LP human melanocytes (Cascade Biologics) were maintained in Medium 254 with Human Melanocyte Growth Supplement (Cascade Biologics).
Adenoviral Overexpression—Recombinant adenoviruses containing human LacZ, Epac1 or Epac2 were constructed (Adeno-X Expression System, Clontech). Human Epac1 and Epac2 cDNA were kindly provided by Dr. J. L Bos (University Medical Center, Utrecht, Netherlands). Adenovirus of PKA alpha subunit was purchased from Vector Biolabs. The corresponding encoding sequence was cloned in topShuttle2 (Clontech) to obtain a mammalian expression cassette, which was then excised and ligated into BD Adeno-X Viral DNA. The recombinant vector was introduced into human embryonic kidney cells (HEK293) to recover infectious adenovirus. Viruses were propagated in HEK293 cells, and purified by BD Adeno-X Virus Purification Kits. Viral titer was determined by Adeno-X Rapid Titer Kit (Clontech). […]
Migration assay—Migration assay was performed using methods previously known in the art using the Boyden chambers (pore size 8 μm, BD Biosciences). […] After mechanical removing of the cells on the upper surface of the membrane with a cotton swab, cells that migrated onto the lower surface of the membrane were counted. […]

[2] = system: SK-Mel-24; assay: Migration assay (Boyden chambers) in SK-Mel-24; assay type: cell-based, human; settings: FIG. 1A; for cell migration: 50 μM agonist
Description: as §1
(§2) Adenoviral Overexpression—Recombinant adenoviruses containing human LacZ, Epac1 or Epac2 were constructed (Adeno-X Expression System, Clontech). Human Epac1 and Epac2 cDNA were kindly provided by Dr. J. L Bos (University Medical Center, Utrecht, Netherlands). Adenovirus of PKA alpha subunit was purchased from Vector Biolabs. The corresponding encoding sequence was cloned in topShuttle2 (Clontech) to obtain a mammalian expression cassette, which was then excised and ligated into BD Adeno-X Viral DNA. The recombinant vector was introduced into human embryonic kidney cells (HEK293) to recover infectious adenovirus. Viruses were propagated in HEK293 cells, and purified by BD Adeno-X Virus Purification Kits. Viral titer was determined by Adeno-X Rapid Titer Kit (Clontech). As a control study, adenovirus vector harboring LacZ was used at the same MOI. Cells were infected with adenovirus for 24 hand subjected to each experiment. In some experiments (For HS production and NDST-1 expression, FIGS. 5B, 5C, 5D, 5E, 5F and 5G), cells were further incubated for 48 h in medium without adenovirus followed by each experiment.
Migration assay—Migration assay was performed using methods previously known in the art using the Boyden chambers (pore size 8 μm, BD Biosciences). The upper chamber's polycarbonate insert film parts were coated by 75 μl fibronectin (50 μg/ml in PBS, Biosciences). Cultured cells were detached and the number of the cells was adjusted to 1×10^3 cells/μl of media. One-hundred micro liter of the cell suspension was applied to the center of the upper chamber and then attached to the lower chamber. […] After mechanical removing of the cells on the upper surface of the membrane with a cotton swab, cells that migrated onto the lower surface of the membrane were counted. […]

[3] = system: SK-Mel-2; assay: Migration assay (Boyden chambers) in SK-Mel-2; assay type: cell-based, human; settings: for cell migration: 50 μM agonist
Description: as §1, §2
(§3) Migration assay—Migration assay was performed using methods previously known in the art using the Boyden chambers (pore size 8 μm, BD Biosciences). The upper chamber's polycarbonate insert film parts were coated by 75 μl fibronectin (50 μg/ml in PBS, Biosciences). Cultured cells were detached and the number of the cells was adjusted to 1×10^3 cells/μl of media. One-hundred micro liter of the cell suspension was applied to the center of the upper chamber and then attached to the lower chamber. Thereafter, the cells were incubated in CO2 incubator at 37° C. for 3 h unless specified. After fixation with 10% formalin neutral solution, cells were stained with Diff-Quick kit (Dade Behring). After mechanical removing of the cells on the upper surface of the membrane with a cotton swab, cells that migrated onto the lower surface of the membrane were counted. Pictures were taken with a microscope followed by counting migrated cells with Image J software in randomly chosen 10 fields.
Transfection of siRNA—Epac1 siRNA (Ambion), syndecan-2 siRNA (Ambion) and NDST-1 siRNA (QIAGEN) were transfected into subconfluent SK-Mel-2 cells using Lipofectamine 2000 (Invitrogen). For Epac1, a pool of double-stranded siRNAs containing equal parts of the following antisense sequence was used: 5′-AUCACUGUAUACCGGUUCC-3′ (SEQ ID NO: 1). For syndecan-2, a pool of double-stranded siRNAs containing equal parts of the following antisense sequence was used: 5′-CUCUGGACUCUCUACAUCC-3′ (SEQ ID NO: 2). For NDST-1, a pool of double-stranded siRNAs containing equal parts of the following antisense sequence was used: 5′-UUUAUUAGCAGUUAGUUCG-3′ (SEQ ID NO: 3). The corresponding non-targeting siRNA Silencer negative Control #2 siRNA (AM4613, Ambion) was used as a negative control. Twenty-four hours later, the medium containing siRNA was changed to fresh medium and incubated for 72 h. When siRNA transfection was combined with adenoviral infection, siRNA transfection followed the adenoviral infection.

[4] = system: syndecan-2 colocalization with lipid rafts; assay: Immunocytochemical staining of syndecan-2 and lipid rafts in SK-Mel-2; assay type: cell-based, human; settings: for colocalization of syndecan-2 with lipid rafts: SK-Mel-2, 50 μM 8-pMeOPT for 15 min; for Epac1-induced syndecan-2 colocalization with lipid rafts: SK-Mel-2 overexpressing Epac1, NCD 10 μM for 3 h, FIG. 3D
Description: (§4) Immunocytochemistry—Immunocytochemistry was performed using methods previously known in the art. SK-Mel-2 on glass coverslips were fixed, washed and permeabilized with 0.02% Triton-X followed by incubation with primary and secondary antibodies for 30 min at room temperature. Alexa Fluor 488- and 594-conjugated goat anti-rabbit or anti-mouse antibodies (Molecular Probes) were used. The pictures were taken with a digital camera operated on a Nikon Eclipse TE200 or a confocal microscope (Zeiss Axiovert 100M). For mounting media, Prolong-Gold antifade with DAPI (Molecular Probes) was used.

[5] = system: Cloudman S91 melanoma cell line; assay: Migration assay in Cloudman S91 melanoma cells; assay type: cell-based, mouse; settings: 50 μM 8-pMeOPT, FIG. 6B
Description: as §3
Lung colonization assay—To examine the metastatic potential of melanoma cells, lung colonization assay was performed using methods known in the art. […] Two weeks after the injection, the number of metastatic colonies on the surface of the lungs were counted under a dissection microscope. […]

[6] = system: syndecan-2 in lipid rafts-rich fraction; assay: Immunoblot for syndecan-2 in lipid rafts-rich fraction (sucrose density gradient) of SK-Mel-2; assay type: cell-based, human; settings: SK-Mel-2 overexpressing Epac1; 10 μM NCD for 3 h; FIG. 3E
Description: Western Blotting—Western blot analysis was performed using methods previously known in the art. Cells were lysed and sonicated in lysis buffer containing 25 mM Tris-HCl (pH7.5), 150 mM NaCl, 5 mM MgCl2, 1% NP-40, 1 mM DTT, 5% glycerol, phosphatase inhibitor (Sigma), protease inhibitor cocktail (Sigma) and 1 mM NaF. Equal amounts of protein (20 μg) were subjected to SDS-PAGE. After protein separation by electrophoresis, samples were transferred to Millipore Immobilon-P membrane and immunoblotting with antibodies was performed. Signal intensities of the bands were quantified with Image J software (NIH). Sucrose density gradient centrifugation—Lipid rafts-enriched membrane fractions were prepared using methods previously known in the art. Briefly, SK-Mel-2 cells were homogenated in 2 ml of 500 mM sodium carbonate (pH 11.0) with protease inhibitors (1 μg/ml leupeptin, 0.1 mM PMSF and 50 U/ml egg white trypsin inhibitor) and lysed by sonication. The lysate was then adjusted to 45% sucrose by mixing with 2 ml of 90% sucrose prepared in MBS buffer (25 mM 2-Morpholinoethanesulfonic acid (MES), pH 6.5, […]) and placed at the bottom of 5% and 35% discontinuous sucrose gradient (in MBS buffer containing 100 mM sodium carbonate) for an overnight ultra-centrifugation (260,000 g). Fractions were removed sequentially from the top and designated as fractions 1 through 13. […]

[7] = system: tubulin; assay: Immunocytochemical staining with tubulin in SK-Mel-2; assay type: cell-based, human; settings: SK-Mel-2 overexpressing Epac1; NCD 10 μM for 3 h; FIG. 3C
Description: as §4

With CCCC(=O)Nc1ncnc2c1ncn2[C@@H]1O[C@@H]2COP(=O)(O)O[C@H]2[C@H]1O [6-MB-cAMP, N6-Monobutyryladenosine-3′,5′-cyclic monophosphate] the cell migration [1] was “did not increase cell migration”, the cell migration [2] was “did not increase cell migration; also recorded: neither 6-MB-cAMP nor PKA overexpression, increased melanoma cell migration” and the cell migration ([3]; SK-Mel-2, FIG. 1A) was “did not increase cell migration; also recorded: neither 6-MB-cAMP nor PKA overexpression, increased melanoma cell migration”.

In the case of COc1ccc(Sc2nc3c(N)ncnc3n2[C@@H]2O[C@@H]3COP(=O)(O)O[C@H]3[C@H]2OC)cc1 [8-pMeOPT, 8-pMeOPT-2-O-Me-cAMP], the cell migration [1] is reported as “not in a melanocyte cell line”, the “colocalization of syndecan-2 with lipid rafts” value ([4]; FIG. 2A) is reported as “increased colocalization of syndecan-2 with lipid rafts” and the “colocalization of syndecan-2 with lipid rafts” value ([4]; FIG. 2A, listed as Epac agonist) is reported as “increased co-localization of syndecan-2 with lipid rafts”. The “cell migration, combination with overexpression of Epacs over Epac overexpression alone” value ([2]; 50 μM 8-pMeOPT) was “such increase was not observed”, the cell migration [2] was “increased melanoma cell migration” and the migration [5] was “increased migration”. For the same compound, the “cell migration, combination with overexpression of Epacs over Epac overexpression alone” value ([3]; SK-Mel-2, 50 μM 8-pMeOPT, FIG. 1A) was “further increased cell migration” and the cell migration ([3]; SK-Mel-2, FIG. 1A) was “increased melanoma cell migration”.

For COC(=O)Nc1nc2ccc(C(=O)c3cccs3)cc2[nH]1 [NCD, Nocodazole], the “syndecan-2 expression in lipid raft-rich fraction” value [6] was “decreased expression of sydecan-2 in the lipid rafts-rich fraction; also recorded: decreased syndecan-2 expression in lipid raft-rich fraction”, the “Epac1-induced syndecan-2 colocalization with lipid rafts” value [4] was “decreased Epac1-induced syndecan-2 colocalization with lipid rafts” and the “Epac1-induced syndecan-2 colocalization with lipid rafts” value ([4]; listed as Nocodazole) was “decreased the colocalization of syndecan-2 with lipid rafts”. For the same compound, the “Epac1-induced fine tubulin network formation” value [7] was “network formation was inhibited” and the Epac1-induced migration ([3]; SK-Mel-2 overexpressing Epac1, NCD 10 μM, FIG. 3F) was “inhibited Epac-induced migration; also recorded: inhibited Epac1-induced migration”.

With [Na+].[O-][Cl+2]([O-])[O-] [sodium chlorate] the Epac-induced migration ([3]; sodium chlorate, data not shown) was “decreased Epac-induced migration”.

In the case of cyclodextrin [CXD], the “Epac1-overexpression-induced colocalization of syndecan-2 with lipid rafts” value ([4]; SK-Mel-2 with Epac1 adenovirus, 10 μg/ml CXD, FIG. 2A) is reported as “decreased Epac-induced syndecan-2 colocalization with lipid-rafts; also recorded: decreased Epac1-overexpression-induced colocalization of syndecan-2 with lipid rafts”, the Epac1 overexpression-induced migration ([3]; SK-Mel-2 overexpressing Epac1, 10 μg/ml CXD, FIG. 2C) is reported as “inhibited; also recorded: decreased Epac1 overexpression-induced migration” and the basal migration ([3]; SK-Mel-2 overexpressing LacZ, 10 μg/ml CXD, assay 8 h, FIG. 2C) is reported as “inhibited”.
